Experimental findings from US20180312493A1, “Antibiotic Compounds, Pharmaceutical Formulations Thereof And Methods And Uses Therefor” (Simon Fraser University, priority 2015, published 2018) are described below.

SMILES strings stand for the structures. pIC50: −log10 of the molar value. Converted amounts (≈) assume the structure as drawn. A value given as a limit tells only on which side of the number the result lay.

Assay [1] has as its system S. aureus (ATCC29213). Briefly: In vitro susceptibility, broth microdilution (MIC). The format is cell-based. The following applies: Staphylococcus aureus; S. aureus ATCC29213; 18-24 h, 37 C; read-out: Antimicrobial activity (MIC) S. aureus ATCC29213. The gist of the method: (§1)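 CLSI 2-fold serial broth microdilution; K. pneumoniae C238 grown in L-broth, S. aureus ATCC 29213 in Mueller Hinton broth, plates incubated 18–24 h at 37 °C. MIC taken as lowest concentration giving complete growth inhibition by OD600 versus compound-free wells, background-subtracted.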
A general note: Broth dilution looks for growth in wells or tubes with falling amounts of substance.

For assay [2], the system named is VRE#2 (2010A). The experiment in a line: In vitro susceptibility, broth microdilution (MIC). The format is cell-based, vancomycin resistant Enterococci. The following applies: VRE#2 (2010A); read-out: Antimicrobial activity (MIC) VRE#2. The source says: (§2) Epidemic methicillin resistant S. aureus (MRSA) strain sequenced at the Sanger Centre (MRSA252, NRS71) was obtained from NARSA (Network on Antimicrobial Resistance in S. aureus). Methicillin sensitive S. aureus (ATCC 29213 and 25923), methicillin resistant S. aureus (ATCC BAA-1762), and Salmonella typhimurium (ATCC BAA-185) were obtained from ATCC, The Global Bioresource Center. Acinetobacter baumannii (ATCC 19606 and ATCC 17978), Klebsiella pneumonia (C238), vancomycin resistant Enterococci #2 (2010A) (VRE#2), MRSA (USA400, MW2) and Pseudomonas aeruginosa (PA0-1) were obtained from the laboratory of Dr B. B. Finlay at the University of British Columbia (Vancouver, Canada).
(§3) The antimicrobial activities of PK inhibitor candidates were determined using the 96-well microtiter standard 2-fold serial broth microdilution method as described by CLSI (formerly NCCLS) with the various gram-positive and gram-negative bacteria species mentioned above. Bacteria from a single colony were grown, overnight in either BHI Broth (VRE), mueller hinton broth (S. aureus 29213; MRSA USA400, A. baumannii 19606, MRSA BAA-1762) or L-broth (P. aeruginosa, S. typhimurium, K. pneumonia and A. baumannii 17978). Each compound was prepared in DMSO with 2-fold serial dilutions to give a final concentration of, 0.031 to 64 μg/ml. 10 μl of the compound solution was then added, in duplicate, to either, 190 μl of cation adjusted mueller hinton broth (CAMHB) or 190 μl CAMHB containing ˜2.5×10^5 CFU/ml of bacteria (final compound concentration 0.031 to 64 μg/ml). Culture plates were incubated for 18-24 h at 37° C., and optical density at 600 nm (OD600) was measured using a Benchmark Plus™ microplate spectrophotometer (Bio-Rad™). The absorbance control values for the series containing CAMHB and inhibitor were subtracted as background from the corresponding infected wells. Minimal inhibitory concentration (MIC) was defined as the lowest concentration of test compound leading to complete inhibition of cell growth in relation to compound-free control wells as determined by optical density. Vancomycin, methicillin and ciprofloxicin were used as reference compounds. All assays were run in triplicate or duplicate. Experiments were replicated at least twice to verify reproducibility using the above conditions.

The test system of assay [3] is A. baumannii (ATCC 19606). Briefly: In vitro susceptibility, broth microdilution (MIC). The following applies: Acinetobacter baumannii, ATCC19606; A. baumannii ATCC 19606 (values without asterisk); read-out: Antimicrobial activity (MIC) A. baumannii. It is filed as cell-based.
From the text: as §2, §3

In assay [4] the target is T1, MRSA Pyk (Staphylococcus aureus, UniProt Q6GG09).
T1 construct: made in house; host or cells: E. coli BL-21 (DE3)
T1 sequence (Q6GG09 whole entry): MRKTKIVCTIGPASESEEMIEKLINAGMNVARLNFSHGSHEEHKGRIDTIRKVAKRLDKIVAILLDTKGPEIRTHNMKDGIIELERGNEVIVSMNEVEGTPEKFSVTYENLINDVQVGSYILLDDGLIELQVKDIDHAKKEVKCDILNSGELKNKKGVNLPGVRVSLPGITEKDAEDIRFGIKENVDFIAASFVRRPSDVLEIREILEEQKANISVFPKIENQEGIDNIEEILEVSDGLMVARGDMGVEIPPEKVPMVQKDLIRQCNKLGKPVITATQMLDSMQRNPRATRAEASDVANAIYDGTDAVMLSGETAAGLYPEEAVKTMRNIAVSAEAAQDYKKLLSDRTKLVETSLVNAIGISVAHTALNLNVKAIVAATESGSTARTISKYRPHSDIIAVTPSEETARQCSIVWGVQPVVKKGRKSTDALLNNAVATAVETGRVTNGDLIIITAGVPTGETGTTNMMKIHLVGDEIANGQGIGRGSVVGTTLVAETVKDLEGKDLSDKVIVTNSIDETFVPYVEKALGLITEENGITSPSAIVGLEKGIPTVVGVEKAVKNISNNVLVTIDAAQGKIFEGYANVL
The experiment in a line: MRSA pyruvate kinase (PK) activity, continuous LDH-coupled assay. The format is biochemical, methicillin resistant S. aureus (MRSA252). Put shortly:
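His-tagged MRSA PK (strain Sanger 252) and human PK isoforms expressed in E. coli BL-21 (DE3) and Ni-NTA purified, used at 15 nM in an LDH-coupled assay following NADH oxidation at 340 nm, 30° C, up to 5 min, ≤1% DMSO. IC50 from four-parameter variable-slope fit; Ki with PEP 2-20 mM, ADP fixed 2 mM, inhibitor 0-400 nM.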

The test system of assay [5] is MRSA (ATCC BAA-1762). The experiment in a line: In vitro susceptibility, broth microdilution (MIC). The following applies: Staphylococcus aureus; MRSA ATCC BAA-1762; read-out: Antimicrobial activity (MIC) MRSA ATCC BAA1762. The format is cell-based, methicillin resistant S. aureus.
From the text: as §2, §3

Assay [6] has as its system K. pneumoniae (C238). Briefly: In vitro susceptibility, broth microdilution (MIC). It is filed as cell-based. The note with it: Klebsiella pneumoniae; K. pneumoniae (C238); read-out: Antimicrobial activity (MIC) K. pneumoniae. Put shortly:
as §1

Consider `C[n+]1cccc(CNC(=O)c2c(-c3cc4cc(Cl)ccc4[nH]3)[nH]c3cc(Br)ccc23)c1` [Compound 148, 3-((6-bromo-5′-chloro-1H,1′H-[2,2′-biindole]-3-carboxamido)methyl)-1-methylpyridin-1-ium], for which the MIC in assay [1] is 8 µg/mL; in assay [2], 16 µg/mL; in assay [3], > 64 µg/mL; in assay [5], 16 µg/mL. Also, in assay [4], the pIC50 was > 7.00.

Turning to `O=C(Nc1ccc(Cl)cc1)Nc1nc2cc(C(F)(F)F)ccc2s1` [Compound 169, 1-(4-chlorophenyl)-3-(5-(trifluoromethyl)benzo[d]thiazol-2-yl)urea], the MIC in assay [1] was 1 µg/mL (≈ 2.69 µM); in assay [2] it was 2 µg/mL (≈ 5.38 µM); in assay [3], > 64 µg/mL; in assay [5], 0.5 µg/mL (≈ 1.34 µM).

With `COCCN1CCCN(CCNC(=O)c2c(-c3cc4cc(Cl)ccc4[nH]3)[nH]c3cc(Br)ccc23)CC1` [Compound 130, 6-bromo-5′-chloro-N-(2-(4-(2-methoxyethyl)-1,4-diazepan-1-yl)ethyl)-1H,1′H-2,2′-biindole-3-carboxamide], the MIC in assay [1] was 16 µg/mL (≈ 27.9 µM); in assay [2] it was 16 µg/mL (≈ 27.9 µM); in assay [3], > 64 µg/mL; in assay [5], 16 µg/mL (≈ 27.9 µM). In addition, the negative-log IC50 (pIC50) in assay [4] was > 7.00.

Regarding `N.O=C(O)CON=C(c1c(-c2cc3cc(Cl)ccc3[nH]2)[nH]c2cc(Br)ccc12)C(F)(F)F` (racemic) [Compound 219, Ammonium 2-(((1-(6-bromo-5′-chloro-1H,1′H-[2,2′-biindol]-3-yl)-2,2,2-trifluoroethylidene)amino)oxy)acetate], the minimum inhibitory concentration (MIC) in assay [1] is 8 µg/mL; in assay [2], 4 µg/mL; in assay [3], > 64 µg/mL; in assay [5], 8 µg/mL. Also, the negative logarithm of the IC50 (pIC50) in assay [4] was > 7.00.

`Nc1ccc(NC(=O)Nc2nc3cc(Br)ccc3s2)cc1` [Compound 160, 1-(4-aminophenyl)-3-(5-bromobenzo[d]thiazol-2-yl)urea]: the MIC was 4 µg/mL (≈ 11 µM) in assay [1], 8 µg/mL (≈ 22 µM) in assay [2], > 64 µg/mL in assay [3] and 4 µg/mL (≈ 11 µM) in assay [5].

On to `C[n+]1ccc(CCNC(=O)c2c(-c3cc4cc(Cl)ccc4[nH]3)[nH]c3cc(Br)ccc23)cc1` [Compound 149, 4-(2-(6-bromo-5′-chloro-1H,1′H-[2,2′-biindole]-3-carboxamido)ethyl)-1-methylpyridin-1-ium], for which the MIC in assay [1] is 16 µg/mL; in assay [2], 16 µg/mL; in assay [3], > 64 µg/mL; in assay [5], 16 µg/mL. Moreover, in assay [4], the pIC50 was > 7.00.

In the case of `CN1CCCN(CCNC(=O)c2c(-c3cc4cc(Cl)ccc4[nH]3)[nH]c3cc(Br)ccc23)CC1` [Compound 119, 6-Bromo-5′-chloro-N-(2-(4-methyl-1,4-diazepan-1-yl)ethyl)-1H,1′H-[2,2′-biindole]-3-carboxamide], the MIC in assay [1] was found to be 16 µg/mL (≈ 30.3 µM); in assay [2] it was 8 µg/mL (≈ 15.1 µM); in assay [3], 64 µg/mL (≈ 121 µM); in assay [5], 16 µg/mL (≈ 30.3 µM). Also, the pIC50 in assay [4] was > 7.00.

Take `CC(C)(C)NCCNC(=O)COc1cc2[nH]c(-c3cc4ccc(Br)cc4[nH]3)cc2cc1Cl` [Compound 193, 2-((6′-Bromo-5-chloro-1H,1′H-[2,2′-biindol]-6-yl)oxy)-N-(2-(tert-butylamino)ethyl)acetamide]: the MIC in assay [1] and in assay [3] was > 64 µg/mL throughout. Besides, the pIC50 in assay [4] was > 7.00.

Consider `O=C(Nc1nc2cc(Br)ccc2s1)NC1CCCCC1` [Compound 159, 1-(5-bromobenzo[d]thiazol-2-yl)-3-cyclohexylurea], for which the minimum inhibitory concentration (MIC) in assay [1] is 2 µg/mL (≈ 5.65 µM); in assay [3], > 64 µg/mL; in assay [5], 1 µg/mL (≈ 2.82 µM).

Take `O=C(Nc1ccc(Cl)cc1)Nc1nc2cc(Oc3ccccc3)ccc2s1` [Compound 168, 1-(4-chlorophenyl)-3-(5-phenoxybenzo[d]thiazol-2-yl)urea]: the MIC was 1 µg/mL (≈ 2.53 µM) in assay [1], 16 µg/mL (≈ 40.4 µM) in assay [2], > 64 µg/mL in assay [3] and 1 µg/mL (≈ 2.53 µM) in assay [5].

As to `CN(C)CC(=O)Nc1ccc(NC(=O)Nc2nc3cc(Br)ccc3s2)cc1` [Compound 161, N-(4-(3-(5-bromobenzo[d]thiazol-2-yl)ureido)phenyl)-2-(dimethylamino)acetamide], the MIC in assay [1] was 16 µg/mL (≈ 35.7 µM); in assay [2], 16 µg/mL (≈ 35.7 µM); in assay [3], > 64 µg/mL; in assay [5], 8 µg/mL (≈ 17.8 µM).

Consider `O=C(Nc1ccc(Cl)cc1)Nc1nc2cc(Cl)ccc2s1` [Compound 172, 1-(5-chlorobenzo[d]thiazol-2-yl)-3-(4-chlorophenyl)urea], for which the MIC in assay [1] was 0.5 µg/mL (≈ 1.48 µM); in assay [2] it was 1 µg/mL (≈ 2.96 µM); in assay [3], > 64 µg/mL; in assay [5], 0.5 µg/mL (≈ 1.48 µM).

As for `NC(=O)Cn1c(-c2cc3ccc(Br)cc3[nH]2)nc2cc(Cl)c(Cl)cc21` [Compound 215, 2-(2-(6-Bromo-1H-indol-2-yl)-5,6-dichloro-1H-benzo[d]imidazol-1-yl)acetamide], the MIC in assay [1] and in assay [3] was > 64 µg/mL each time.

On to `NC(=O)N1CCCN(CCNC(=O)c2c(-c3cc4cc(Cl)ccc4[nH]3)[nH]c3cc(Br)ccc23)CC1` [Compound 128, 6-bromo-N-(2-(4-carbamoyl-1,4-diazepan-1-yl)ethyl)-5′-chloro-1H,1′H-2,2′-biindole-3-carboxamide], for which the MIC in assay [1], in assay [2] and in assay [3] was > 64 µg/mL throughout.

For `CC(C)(C)NC(=O)Nc1nc2cc(Br)ccc2s1` [Compound 173, 1-(5-bromobenzo[d]thiazol-2-yl)-3-(tert-butyl)urea], the minimum inhibitory concentration (MIC) in assay [1] is 16 µg/mL (≈ 48.7 µM); in assay [2], 32 µg/mL (≈ 97.5 µM); in assay [3] it was > 64 µg/mL; in assay [5], 16 µg/mL (≈ 48.7 µM).

On to `O=C(Nc1nc2cc(Br)ccc2s1)NC1CCCCCC1` [Compound 174, 1-(5-bromobenzo[d]thiazol-2-yl)-3-cycloheptylurea], for which the MIC in assay [1] is 1 µg/mL (≈ 2.72 µM); in assay [2] it was 1 µg/mL (≈ 2.72 µM); in assay [3], > 64 µg/mL; in assay [5], 1 µg/mL (≈ 2.72 µM).

In the case of `O=C(CCCC(=O)c1c(-c2cc3cc(Cl)ccc3[nH]2)[nH]c2cc(Br)ccc12)Nc1ncn[nH]1` [Compound 105, 5-(6-bromo-5′-chloro-1H,1′H-[2,2′-biindol]-3-yl)-5-oxo-N-(1H-1,2,4-triazol-5-yl)pentanamide], the MIC in assay [6] and in assay [1] was > 64 µg/mL in each case. Moreover, the pIC50 in assay [4] is > 7.00.

With `Cc1nc2c(cc1-c1ccc(Cl)cc1)[nH]c1cc(Br)ccc12` [Compound 113, 7-bromo-3-(4-chlorophenyl)-2-methyl-5H-pyrido[3,2-b]indole], the MIC in assay [6] and in assay [1] was > 64 µg/mL each time. Further, the negative-log IC50 (pIC50) in assay [4] was > 7.00.

On to `O=C(Nc1ccc(Cl)cc1)Nc1nc2cc(F)ccc2s1` [Compound 166, 1-(4-chlorophenyl)-3-(5-fluorobenzo[d]thiazol-2-yl)urea], for which the MIC in assay [1] was 1 µg/mL (≈ 3.11 µM); in assay [2], 0.5 µg/mL (≈ 1.55 µM); in assay [3] it was > 64 µg/mL; in assay [5], 0.5 µg/mL (≈ 1.55 µM).

Take `CCNC(=O)Nc1nc2cc(Br)ccc2s1` [Compound 176, 1-(5-bromobenzo[d]thiazol-2-yl)-3-ethylurea]: the MIC in assay [1] is 8 µg/mL (≈ 26.7 µM); in assay [2], 16 µg/mL (≈ 53.3 µM); in assay [3], > 64 µg/mL; in assay [5], 8 µg/mL (≈ 26.7 µM).

What is called MIC is the lowest concentration that inhibits growth of the organism. By pIC50 is commonly meant −log10 of the IC50, conventionally taken in molar units.
